What was measured:
HCV replicon = HCV replicon assay (FRET or luciferase reporter); assay type: cell-based; conditions: Hepatitis C virus, one of the methods described
From the text: To perform the HCV FRET screening assay, 96-well cell culture plates were used, The FRET peptide (Anaspec, Inc.) (Taliani et al., Anal. Biochem., 240:60-67 (1996)) contains a fluorescence donor, EDANS, near one end of the peptide and an acceptor, DABCYL, near the other end. The fluorescence of the peptide is quenched by […] resonance energy transfer (RET) between the donor and the acceptor, but as the NS3 protease cleaves the peptide the products are released from RET quenching and the fluorescence of the donor becomes apparent. The assay reagent was made as follows: 5× cell Luciferase cell culture lysis reagent from Promega (#E153A) diluted to 1× with dH2O, NaCl added to 150 mM final, the FRET peptide diluted to 20 μM final from a 2 mM stock.
To prepare plates, HCV replicon cells, with or without a Renilla luciferase reporter gene, were trypsinized and placed into each well of a 96-well plate with titrated test compounds added in columns 3 through 12; columns 1 and 2 contained a control compound (HCV protease inhibitor), and the bottom row contained cells without compound. The plates were then placed in a CO2 incubator at 37° C.
Subsequent to addition of the test compounds described above (FRET Assay Preparation), at various times the plate was removed and Alamar blue solution (Trek Diagnostics, #00-100) was added per well as a measure of cellular toxicity. After reading in a CYTOFLUOR® 4000 instrument (PE Biosystems), plates were rinsed with PBS and then used for FRET assay by the addition of 30 ul of the FRET peptide assay reagent described above (FRET Assay Preparation) per well. The plate was then placed into the CYTOFLUOR® 4000 instrument which had been set to 340 excite/490 emission, automatic mode for 20 cycles and the plate read in a kinetic mode. Typically, the signal to noise using an endpoint analysis after the reads was at least three-fold. Alternatively, after Alamar blue reading, plates were rinsed with PBS, 50 ul of DMEM (high glucose) without phenol red was added and plates were then used for luciferase assay using the Promega DUAL-GLO® Luciferase Assay System.
Compound analysis was determined by quantification of the relative HCV replicon inhibition and the relative cytotoxicity values. To calculate cytoxicity values, the average Alamar Blue fluorescence signals from the control wells were set as 100% non-toxic. The individual signals in each of the compound test wells were then divided by the average control signal and multiplied by 100% to determine […]. To calculate the HCV replicon inhibition values, an average background value was obtained from the two wells containing the highest amount of HCV protease inhibitor at the end of the assay period. These numbers were similar to those obtained from naïve Huh-7 cells.
The background numbers were then subtracted from the average signal obtained from the control wells and this number was used as 100% activity. The individual signals in each of the compound test wells were then divided by the averaged control values after background subtraction and multiplied by 100% to determine percent activity. EC50 values for a protease inhibitor titration were calculated as the concentration which caused a 50% reduction in FRET or luciferase activity. The two numbers generated for the compound plate, percent cytoxicity and percent activity were used to determine compounds of interest for further analysis.
The HCV replicon luciferase assay was developed to monitor the inhibitory effects of compounds described in the disclosure on HCV viral replication. Utilization of a replicon luciferase reporter assay was first described by Krieger et al (Krieger, N. et al., J. Virology, 75(10):4614-4624 (2001)). HUH-7 cells, constitutively expressing the HCV replicon, were grown in Dulbecco's Modified Eagle Media (DMEM) (Gibco-BRL) containing 10% Fetal calf serum (FCS) (Sigma) and 1 mg/ml G418 (Gibco-BRL). […]

HCV NS5B = molecular target: T1, HCV NS5B (Hepatitis C virus genotype 1b, UniProt Q9WMX2); assay: Modified HCV NS5B RdRp enzyme assay (preincubation protocol); assay type: biochemical
T1 construct: The protein was expressed with an 18 amino acid C-terminal truncation to enhance the solubility; made in house; host or cells: E. coli BL21(DE3)
T1 sequence (Q9WMX2 2420-2992): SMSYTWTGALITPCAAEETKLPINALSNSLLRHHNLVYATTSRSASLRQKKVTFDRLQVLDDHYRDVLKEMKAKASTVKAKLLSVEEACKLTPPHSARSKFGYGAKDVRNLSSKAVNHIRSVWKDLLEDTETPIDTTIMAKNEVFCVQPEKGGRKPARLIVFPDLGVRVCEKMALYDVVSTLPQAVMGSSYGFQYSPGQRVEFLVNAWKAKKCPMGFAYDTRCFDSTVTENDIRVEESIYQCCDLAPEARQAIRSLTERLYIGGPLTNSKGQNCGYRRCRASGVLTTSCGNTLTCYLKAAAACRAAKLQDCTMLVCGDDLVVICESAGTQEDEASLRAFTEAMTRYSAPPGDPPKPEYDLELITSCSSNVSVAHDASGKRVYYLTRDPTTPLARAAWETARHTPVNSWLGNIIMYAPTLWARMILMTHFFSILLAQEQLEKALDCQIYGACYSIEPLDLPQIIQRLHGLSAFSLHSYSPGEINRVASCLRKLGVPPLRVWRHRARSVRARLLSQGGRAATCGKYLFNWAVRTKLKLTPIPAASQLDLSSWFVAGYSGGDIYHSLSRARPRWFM
Method: The cDNA encoding the NS5B protein of HCV, genotype 1b, was cloned into the pET21a expression vector. The protein was expressed with an 18 amino acid C-terminal truncation to enhance the solubility. The E. coli competent cell line BL21(DE3) was used for expression of the protein. Cultures were grown at 37° C. for ˜4 hours until the cultures reached an optical density of 2.0 at 600 nm. The cultures were cooled to 20° C. and induced with 1 mM IPTG. Fresh ampicillin was added to a final concentration of 50 μg/ml and the cells were grown overnight at 20° C.
Cell pellets (3 L) were lysed for purification to yield 15-24 mgs of purified NS5B. The lysis buffer consisted of 20 mM Tris-HCl, pH 7.4, 500 mM NaCl, 0.5% triton X-100, 1 mM DTT, 1 mM EDTA, 20% glycerol, 0.5 mg/ml lysozyme, 10 mM MgCl2, 15 ug/ml deoxyribonuclease I, and Complete TM protease inhibitor tablets (Roche). After addition of the lysis buffer, frozen cell pellets were resuspended using a tissue homogenizer. To reduce the viscosity of the sample, aliquots of the lysate were sonicated on ice using a microtip attached to a Branson sonicator. The sonicated lysate was centrifuged at 100,000×g for 1 hr at 4° C. and filtered through a 0.2 μm filter unit (Corning).
The protein was purified using three sequential chromatography steps: Heparin sepharose CL-6B, polyU sepharose 4B, and […] SP sepharose (Pharmacia). The chromatography buffers were identical to the lysis buffer but contained no lysozyme, deoxyribonuclease I, MgCl2 or protease inhibitor and the NaCl concentration of the buffer was adjusted according to the requirements for charging the protein onto the column. Each column was eluted with a NaCl gradient which varied in length from 5-50 column volumes depending on the column type. After the final chromatography step, the resulting purity of the enzyme is >90% based on SDS-PAGE analysis. The enzyme was aliquoted and stored at −80° C.
HCV RdRp genotype 1b assays were run in a final volume of 60 μl in 96 well plates (Costar 3912). The assay buffer is composed of 20 mM Hepes, pH 7.5, 2.5 mM KCl, 2.5 mM MgCl2, 1 mM DTT, 1.6 U RNAse inhibitor (Promega N2515), 0.1 mg/ml BSA (Promega R3961), and 2% glycerol. All compounds were serially diluted (3-fold) in DMSO and diluted further in water such that the final concentration of DMSO in the assay was 2%. HCV RdRp genotype 1b enzyme was used at a final concentration of 28 nM. A polyA template was used at 6 nM, and a biotinylated oligo-dT12 primer was used at 180 nM final concentration. Template was obtained commercially (Amersham 27-4110). Biotinylated primer was prepared by Sigma Genosys. 3H-UTP was used at 0.6 μCi (0.29 μM total UTP). Reactions were initiated by the addition of enzyme, incubated at 30° C. for 60 min, and stopped by adding 25 μl of 50 mM EDTA containing SPA beads (4 μg/μl, Amersham RPNQ 0007). Plates were read on a Packard TOPCOUNT® NXT after >1 hr incubation at room temperature.
A modified enzyme assay was performed essentially as described for the standard enzyme assay except for the following: The biotinylated oligo dT12 primer was precaptured on streptavidin-coated SPA beads by mixing primer and beads in assay buffer and incubating at room temperature for one hour. Unbound primer was removed after centrifugation. The primer-bound beads were resuspended in 20 mM Hepes buffer, pH 7.5 and used in the assay at final concentrations of 20 nM primer and 0.67 μg/μl beads. Order of addition in the assay: enzyme (14 nM) was added to diluted compound followed by the addition of a mixture of template (0.2 nM), 3H-UTP (0.6 μCi, 0.29 μM), and primer-bound beads, to initiate the reaction; concentrations given are final. Reactions were allowed to proceed for 4 hours at 30° C.
IC50 values for compounds were determined using seven different [I]. IC50 values were calculated from the inhibition using the formula y=A+((B−A)/(1+((C/x)^D))).

COc1ccc2c(c1)C=C(c1c(C(=O)N3C4CCC3CN(C)C4)cnn1C1CCC1)Cn1c-2c(C2CCCCC2)c2ccc(C(=O)NS(=O)(=O)CC(C)C)cc21
EC50 (HCV replicon; class symbol): 1.7 to 500 nM
EC50 (HCV replicon; exact value): 8.1 nM
IC50 (HCV NS5B; class symbol): 1.7 to 500 nM
IC50 (HCV NS5B; exact value): 3.3 nM

COc1ccc2c(c1)C=C(c1c(C(=O)N3CCN(C)CC3)cnn1C1CCC1)Cn1c-2c(C2CCCCC2)c2ccc(C(=O)NS(=O)(=O)C(C)C)cc21
EC50 (HCV replicon; class symbol): 1.7 to 500 nM
IC50 (HCV NS5B; class symbol): 1.7 to 500 nM

COc1ccc2c(c1)C=C(c1c(C(=O)N3C[C@@H]4C[C@H]3CO4)cnn1C1CCC1)Cn1c-2c(C2CCCCC2)c2ccc(C(=O)NS(=O)(=O)C(C)C)cc21
EC50 (HCV replicon; class symbol): 1.7 to 500 nM
EC50 (HCV replicon; exact value): 30 nM
IC50 (HCV NS5B; class symbol): 1.7 to 500 nM
IC50 (HCV NS5B; exact value): 5.4 nM

COc1ccc2c(c1)C=C(c1c(C(=O)N3C[C@@H]4C[C@H]3CN4CC3CC3)cnn1C1CCC1)Cn1c-2c(C2CCCCC2)c2ccc(C(=O)NS(=O)(=O)C(C)C)cc21
EC50 (HCV replicon; class symbol): 1.7 to 500 nM
IC50 (HCV NS5B; class symbol): 1.7 to 500 nM

COc1ccc2c(c1)C=C(c1c(C(=O)N3CCN4CCC[C@H]4C3)cnn1C1CCC1)Cn1c-2c(C2CCCCC2)c2ccc(C(=O)NS(=O)(=O)C(C)C)cc21
EC50 (HCV replicon; class symbol): 1.7 to 500 nM
IC50 (HCV NS5B; class symbol): 1.7 to 500 nM

COc1ccc2c(c1)C=C(c1c(C(=O)N3C[C@]4(C)CN(C)C[C@](C)(C3)C4)cnn1C1CCC1)Cn1c-2c(C2CCCCC2)c2ccc(C(=O)NS(=O)(=O)C(C)C)cc21
EC50 (HCV replicon; class symbol): 1.7 to 500 nM
IC50 (HCV NS5B; class symbol): 1.7 to 500 nM

COc1ccc2c(c1)C=C(c1c(C(=O)N3CCCOCC3)cnn1C1CCC1)Cn1c-2c(C2CCCCC2)c2ccc(C(=O)NS(=O)(=O)C(C)C)cc21
EC50 (HCV replicon; class symbol): 1.7 to 500 nM
EC50 (HCV replicon; exact value): 7.6 nM
IC50 (HCV NS5B; class symbol): 1.7 to 500 nM
IC50 (HCV NS5B; exact value): 5.4 nM

COc1ccc2c(c1)C=C(c1c(C(=O)N3C[C@@H](C)O[C@@H](C)C3)ncn1C1CC1)Cn1c-2c(C2CCCCC2)c2ccc(C(=O)NS(=O)(=O)C(C)C)cc21
EC50 (HCV replicon; class symbol): 1.7 to 500 nM
IC50 (HCV NS5B; class symbol): 1.7 to 500 nM

COc1ccc2c(c1)C=C(c1c(C(=O)N3CCOCC3)ncn1C1CC1)Cn1c-2c(C2CCCCC2)c2ccc(C(=O)NS(=O)(=O)C(C)C)cc21
EC50 (HCV replicon; class symbol): 1.7 to 500 nM
IC50 (HCV NS5B; class symbol): 1.7 to 500 nM

COc1ccc2c(c1)C=C(c1c(C(=O)N3C4CCCC3COC4)cnn1C1CCC1)Cn1c-2c(C2CCCCC2)c2ccc(C(=O)NS(=O)(=O)C(C)C)cc21
EC50 (HCV replicon; class symbol): 1.7 to 500 nM
IC50 (HCV NS5B; class symbol): 1.7 to 500 nM

COc1ccc2c(c1)C=C(c1c(C(=O)N3C[C@@H](C)O[C@@H](C)C3)ncn1C1CCC1)Cn1c-2c(C2CCCCC2)c2ccc(C(=O)NS(=O)(=O)C(C)C)cc21
EC50 (HCV replicon; class symbol): 1.7 to 500 nM
IC50 (HCV NS5B; class symbol): 1.7 to 500 nM

COc1ccc2c(c1)C=C(c1c(C(=O)N3CCOCC3)ncn1C1CCC1)Cn1c-2c(C2CCCCC2)c2ccc(C(=O)NS(=O)(=O)C(C)C)cc21
EC50 (HCV replicon; class symbol): 1.7 to 500 nM
EC50 (HCV replicon; exact value): 70 nM
IC50 (HCV NS5B; class symbol): 1.7 to 500 nM
IC50 (HCV NS5B; exact value): 9.7 nM

COc1ccc2c(c1)C=C(c1c(C(=O)N3CCN(C4CCCC4)CC3)cnn1C1CCC1)Cn1c-2c(C2CCCCC2)c2ccc(C(=O)NS(=O)(=O)C(C)C)cc21
EC50 (HCV replicon; class symbol): 1.7 to 500 nM
IC50 (HCV NS5B; class symbol): 1.7 to 500 nM

COc1ccc2c(c1)C=C(c1c(C(=O)N3C[C@@H](C)O[C@@H](C)C3)c(C)nn1C1CCC1)Cn1c-2c(C2CCCCC2)c2ccc(C(=O)NS(=O)(=O)C(C)C)cc21
EC50 (HCV replicon; class symbol): 1.7 to 500 nM
EC50 (HCV replicon; exact value): 10 nM
IC50 (HCV NS5B; class symbol): 1.7 to 500 nM
IC50 (HCV NS5B; exact value): 6.4 nM

CCN1C[C@@H]2C[C@H]1CN2C(=O)c1cnn(C2CCC2)c1C1=Cc2cc(OC)ccc2-c2c(C3CCCCC3)c3ccc(C(=O)NS(=O)(=O)N(C)C)cc3n2C1
EC50 (HCV replicon; class symbol): 1.7 to 500 nM
IC50 (HCV NS5B; class symbol): 1.7 to 500 nM

CCN1C[C@@H]2C[C@H]1CN2C(=O)c1c(C)nn(C2CCC2)c1C1=Cc2cc(OC)ccc2-c2c(C3CCCCC3)c3ccc(C(=O)NS(=O)(=O)N(C)C)cc3n2C1
EC50 (HCV replicon; class symbol): 1.7 to 500 nM
EC50 (HCV replicon; exact value): 10 nM
IC50 (HCV NS5B; class symbol): 1.7 to 500 nM
IC50 (HCV NS5B; exact value): 3.4 nM

CCN1C[C@@H]2C[C@H]1CN2C(=O)c1c(C)nn(C2CCC2)c1C1=Cc2cc(OC)ccc2-c2c(C3CCCCC3)c3ccc(C(=O)NS(=O)(=O)C(C)C)cc3n2C1
EC50 (HCV replicon; class symbol): 1.7 to 500 nM
IC50 (HCV NS5B; class symbol): 1.7 to 500 nM

COc1ccc2c(c1)C=C(c1c(C(=O)N3C4CCC3CN(C)C4)cnn1C1CCC1)Cn1c-2c(C2CCCCC2)c2ccc(C(=O)NS(=O)(=O)N(C)C)cc21
EC50 (HCV replicon; class symbol): 1.7 to 500 nM
IC50 (HCV NS5B; class symbol): 1.7 to 500 nM

COc1ccc2c(c1)C=C(c1c(C(=O)N3C4CCC3CN(C)C4)c(C)nn1C1CCC1)Cn1c-2c(C2CCCCC2)c2ccc(C(=O)NS(=O)(=O)N(C)C)cc21
EC50 (HCV replicon; class symbol): 1.7 to 500 nM
IC50 (HCV NS5B; class symbol): 1.7 to 500 nM

Source: patent US8133884B2, “Compounds for the treatment of hepatitis C” (priority 2008, dated 2012)
